Laboratory results: ChEMBL document CHEMBL3739362, “Brominated Variant of the Lantibiotic NAI-107 with Enhanced Antibacterial Potency” (2015)
≈ marks a conversion by molar mass, not a printed value.

Legend:
Type in all cases: functional
Staphylococcus aureus [1] = experiment: Antibacterial activity against glycopeptide-intermediate Staphylococcus aureus L3797 by broth microdilution assay
Enterococcus faecium = experiment: Antibacterial activity against vancomycin-resistant Enterococcus faecium L569 by broth microdilution assay
Staphylococcus aureus [2] = experiment: Antibacterial activity against glycopeptide-intermediate Staphylococcus aureus L3798 by broth microdilution assay
Streptococcus pneumoniae [3] = experiment: Antibacterial activity against Streptococcus pneumoniae ATCC 49619 by broth microdilution assay
Enterococcus faecalis [4] = experiment: Antibacterial activity against Enterococcus faecalis L559 by broth microdilution assay
Streptococcus pneumoniae [5] = experiment: Antibacterial activity against Streptococcus pneumoniae L44 by broth microdilution assay
Streptococcus pyogenes = experiment: Antibacterial activity against Streptococcus pyogenes L49 by broth microdilution assay
Enterococcus faecalis [6] = experiment: Antibacterial activity against vancomycin-resistant Enterococcus faecalis L560 by broth microdilution assay

CN[C@@H](CC(C)C)C(=O)N[C@H]1C(=O)N[C@@H](CC(N)=O)C(=O)N[C@H]2C(=O)N[C@H]3C(=O)N[C@H](C(=O)N[C@@H](C(=O)O)c4cc(O)cc(O)c4-c4cc3ccc4O)[C@H](O)c3ccc(c(Cl)c3)Oc3cc2cc(c3O[C@H]2O[C@@H](CO)[C@H](O)[C@@H](O)[C@@H]2O[C@@H]2C[C@@](C)(N)[C@@H](O)[C@@H](C)O2)Oc2ccc(cc2Cl)[C@H]1O showed an MIC (Staphylococcus aureus [1]) of 8 µg/mL (≈ 5.52 µM), an MIC (Enterococcus faecium) greater than 64 µg/mL and an MIC (Staphylococcus aureus [2]) of 16 µg/mL (≈ 11 µM). It also gave an MIC (Streptococcus pneumoniae [3]) of 0.25 µg/mL (≈ 0.173 µM), an MIC (Enterococcus faecalis [4]) of 1 µg/mL (≈ 0.69 µM) and an MIC (Streptococcus pneumoniae [5]) of 0.5 µg/mL (≈ 0.345 µM). The MIC (Streptococcus pyogenes) was 0.5 µg/mL (≈ 0.345 µM) and the MIC (Enterococcus faecalis [6]) was greater than 64 µg/mL.
